Results as given in patent US10246469B2, “Biaryl kinase inhibitors” (BRISTOL-MYERS SQUIBB COMPANY, priority 2015, dated 2019).

Target: T1, GST-Xa-hAAK1 (Homo sapiens, UniProt Q2M2I8)
T1 construct: GST (N); Factor Xa cleavage site (Xa) (internal); made in house
Experiment: AAK1 Kinase Assay
Type: biochemical
Settings: bacterially expressed GST-Xa-hAAK1 3.5 nM; ATP 22 μM; fluoresceinated peptide 1.5 μM; 3 hours at room temperature; Caliper LabChip 3000
Method: The assays were performed in U-bottom 384-well plates. The final assay volume was 30 μl prepared from 15 μl additions of enzyme and substrates (fluoresceinated peptide (5-FAM)-Aha-[…]-NH2 and ATP) and test compounds in assay buffer (10 mM Tris-HCL pH 7.4, 10 mM MgCl2, 0.01% Tween-20 and 1.0 mM DTT). The reactions were initiated by the combination of bacterially expressed, GST-Xa-hAAK1 with substrates and test compounds. The reactions were incubated at room temperature for 3 hours and terminated by adding 60 μl of 35 mM EDTA buffer to each sample. The reactions were analyzed on the Caliper LabChip 3000 (Caliper, Hopkinton, Mass.) by electrophoretic separation of the fluorescent substrate and phosphorylated product. […] The final concentration of reagents in the assays are ATP, 22 μM; (5-FAM)-Aha-[…]-NH2, 1.5 μM; GST-Xa-hAAK1, 3.5 nM; and DMSO, 1.6%. […] Compounds were dissolved at 10 mM in dimethylsulfoxide (DMSO) and evaluated at eleven concentrations. IC50 values were derived by non-linear regression analysis.

T1 sequence (Q2M2I8 whole entry): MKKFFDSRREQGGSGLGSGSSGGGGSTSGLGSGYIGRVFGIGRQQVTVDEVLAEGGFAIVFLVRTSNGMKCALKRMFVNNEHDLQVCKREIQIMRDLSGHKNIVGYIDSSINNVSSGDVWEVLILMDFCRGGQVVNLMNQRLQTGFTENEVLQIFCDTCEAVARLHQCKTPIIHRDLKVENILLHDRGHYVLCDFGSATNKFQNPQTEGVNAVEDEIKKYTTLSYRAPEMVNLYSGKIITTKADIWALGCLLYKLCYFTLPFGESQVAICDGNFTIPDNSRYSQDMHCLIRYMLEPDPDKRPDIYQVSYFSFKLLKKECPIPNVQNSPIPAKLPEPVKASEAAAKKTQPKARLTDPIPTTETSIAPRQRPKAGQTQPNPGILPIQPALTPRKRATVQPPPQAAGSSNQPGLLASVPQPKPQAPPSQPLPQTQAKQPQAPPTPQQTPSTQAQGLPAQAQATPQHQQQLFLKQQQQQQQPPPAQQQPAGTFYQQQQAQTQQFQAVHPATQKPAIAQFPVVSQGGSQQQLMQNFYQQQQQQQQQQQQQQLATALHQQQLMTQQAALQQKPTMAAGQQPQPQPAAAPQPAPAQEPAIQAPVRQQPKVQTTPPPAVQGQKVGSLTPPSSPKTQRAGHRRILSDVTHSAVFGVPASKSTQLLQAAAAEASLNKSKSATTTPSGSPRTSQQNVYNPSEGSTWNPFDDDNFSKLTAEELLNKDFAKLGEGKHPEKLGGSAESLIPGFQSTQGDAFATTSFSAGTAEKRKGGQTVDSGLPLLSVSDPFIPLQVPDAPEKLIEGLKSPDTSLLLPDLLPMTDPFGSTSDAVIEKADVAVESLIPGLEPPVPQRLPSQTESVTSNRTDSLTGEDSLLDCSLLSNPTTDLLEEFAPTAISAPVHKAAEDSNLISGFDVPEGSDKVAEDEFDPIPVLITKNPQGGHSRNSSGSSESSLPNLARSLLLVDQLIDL

IC50 [nM]	Compound
1740	Cc1cc(-c2ccnc3ccn(C)c23)ccc1OC[C@@](C)(N)CC(C)C [Example 427, (S)-2,4-dimethyl-1-(2-methyl-4-(1-methyl-1H-pyrrolo[3,2-b]pyridin-7-yl)phenoxy)pentan-2-amine]
0.9	CC(C)C[C@](C)(N)COc1ccc(-c2ccnc3[nH]ncc23)cc1F [Example 288, (S)-1-(2-fluoro-4-(1H-pyrazolo[3,4-b]pyridin-4-yl)phenoxy)-2,4-dimethylpentan-2-amine]
1	CC(C)C[C@](C)(N)COc1ccc(-c2ccnc(NC(=O)C3CCCO3)c2)cc1C(F)(F)F (stereo partly drawn) [Example 398, N-(4-(4-(((S)-2-amino-2,4-dimethylpentyl)oxy)-3-(trifluoromethyl)phenyl)pyridin-2-yl)tetrahydrofuran-2-carboxamide]
862	CC(C)C[C@](C)(N)COc1ccc(-c2ccnc3ccn(C)c23)cc1C#N [Example 423, (S)-2-((2-amino-2,4-dimethylpentyl)oxy)-5-(1-methyl-1H-pyrrolo[3,2-b]pyridin-7-yl)benzonitrile]
0.5	Cc1cc(C(=O)Nc2cc(-c3ccc(OC[C@@](C)(N)CC(C)C)c(C(F)(F)F)c3)ccn2)no1 [Example 408, (S)—N-(4-(4-((2-amino-2,4-dimethylpentyl)oxy)-3-(trifluoromethyl)phenyl)pyridin-2-yl)-5-methylisoxazole-3-carboxamide]
0.5	Cc1cn2nccc(-c3ccc(OC[C@@](C)(N)CC(C)C)c(C(F)(F)F)c3)c2n1 [Example 498, (S)-2,4-dimethyl-1-(4-(2-methylimidazo[1,2-b]pyridazin-8-yl)-2-(trifluoromethyl)phenoxy)pentan-2-amine]
0.5	CC(C)C[C@](C)(N)COc1ccc(-c2ccnn3ccnc23)cc1C#N [Example 287, (S)-2-((2-amino-2,4-dimethylpentyl)oxy)-5-(imidazo[1,2-b]pyridazin-8-yl)benzonitrile]
36	CC(C)C[C@](C)(N)COc1ccc(-c2ccnc3c2C(=O)N(C)C3)cc1Cl [Example 429, (S)-4-(4-((2-amino-2,4-dimethylpentyl)oxy)-3-chlorophenyl)-6-methyl-6,7-dihydro-5H-pyrrolo[3,4-b]pyridin-5-one]
29	CCN1Cc2nccc(-c3ccc(OC[C@@](C)(N)CC(C)C)c(C(F)(F)F)c3)c2C1=O [Example 418, (S)-4-(4-((2-amino-2,4-dimethylpentyl)oxy)-3-(trifluoromethyl)phenyl)-6-ethyl-6,7-dihydro-5H-pyrrolo[3,4-b]pyridin-5-one]
52	Cc1nc(-c2ccc(OC[C@@](C)(N)CC(C)C)c(C(F)(F)F)c2)c2ccsc2n1 [Example 481, (S)-2,4-dimethyl-1-(4-(2-methylthieno[2,3-d]pyrimidin-4-yl)-2-(trifluoromethyl)phenoxy)pentan-2-amine]
0.4	CC(C)C[C@](C)(N)COc1ccc(-c2ncnc3[nH]ccc23)cc1C(F)(F)F [Example 363, (S)-1-(4-(7H-pyrrolo[2,3-d]pyrimidin-4-yl)-2-(trifluoromethyl)phenoxy)-2,4-dimethylpentan-2-amine]
5.2	CC(C)C[C@](C)(N)COc1ccc(-c2ccnc(NC3CCOC3)c2)cc1Cl (stereo partly drawn) [Example 345, 4-(4-(((S)-2-amino-2,4-dimethylpentyl)oxy)-3-chlorophenyl)-N-(tetrahydrofuran-3-yl)pyridin-2-amine]

The remaining lines, values behind:

Compound	IC50 [nM]
Cc1cc(-c2ccnc3ccnn23)cnc1OC[C@@](C)(N)CC(C)C [Example 275, (S)-2,4-dimethyl-1-((3-methyl-5-(pyrazolo[1,5-a]pyrimidin-7-yl)pyridin-2-yl)oxy)pentan-2-amine]	2.2
CC(C)C[C@](C)(N)COc1ccc(-c2ccnc(NC3CCCOC3)c2)cc1C(F)(F)F (single isomer, unassigned) [Example 476]	125
COCc1nc2c(-c3ccc(OC[C@@](C)(N)CC(C)C)c(C(F)(F)F)c3)ccnc2[nH]1 [Example 295, (S)-1-(4-(2-(methoxymethyl)-3H-imidazo[4,5-b]pyridin-7-yl)-2-(trifluoromethyl)phenoxy)-2,4-dimethylpentan-2-amine]	22
CC(C)C[C@](C)(N)COc1ccc(-c2ncnc3cc(F)c(F)cc23)cc1C(F)(F)F [Example 471, (S)-1-(4-(6,7-difluoroquinazolin-4-yl)-2-(trifluoromethyl)phenoxy)-2,4-dimethylpentan-2-amine]	6.3
CC(C)C[C@](C)(N)COc1ccc(-c2ccnc(NC3CCC(F)C3)c2)cc1Cl (stereo partly drawn) [Example 334, 4-(4-(((S)-2-amino-2,4-dimethylpentyl)oxy)-3-chlorophenyl)-N-(3-fluorocyclopentyl)pyridin-2-amine]	15
Cc1ncccc1C(=O)Nc1cc(-c2ccc(OC[C@@](C)(N)CC(C)C)c(C(F)(F)F)c2)ccn1 [Example 405, (S)—N-(4-(4-((2-amino-2,4-dimethylpentyl)oxy)-3-(trifluoromethyl)phenyl)pyridin-2-yl)-2-methylnicotinamide]	2
CC(C)C[C@](C)(N)COc1ccc(-c2ccnc(Nc3ccc4c(c3)OCO4)c2)cc1C(F)(F)F [Example 412, (S)-4-(4-((2-amino-2,4-dimethylpentyl)oxy)-3-(trifluoromethyl)phenyl)-N-(benzo[d][1,3]dioxol-5-yl) pyridin-2-amine]	6.4
CC(C)C[C@](C)(N)COc1ccc(-c2ccnc(NC3CCNCC3)c2)cc1C(F)(F)F [Example 470, (S)-4-(4-(2-amino-2,4-dimethylpentyloxy)-3-(trifluoromethyl)phenyl)-N-(piperidin-4-yl)pyridin-2-amine]	138
CC(C)C[C@](C)(N)COc1ccc(-c2ccnc(Nc3nccs3)n2)cc1C(F)(F)F [Example 371, (S)—N-(4-(4-((2-amino-2,4-dimethylpentyl)oxy)-3-(trifluoromethyl)phenyl)pyrimidin-2-yl)thiazol-2-amine]	0.2
Cc1nc2c(-c3ccc(OC[C@@](C)(N)CC(C)C)c(C#N)c3)ncnc2s1 [Example 271, (S)-2-((2-amino-2,4-dimethylpentyl)oxy)-5-(2-methylthiazolo[5,4-d]pyrimidin-7-yl)benzonitrile]	4.1
Cc1cc(-c2ccnc3[nH]c(N)nc23)ccc1OC[C@@](C)(N)CC(C)C [Example 259, (S)-7-(4-((2-amino-2,4-dimethylpentyl)oxy)-3-methylphenyl)-3H-imidazo[4,5-b]pyridin-2-amine]	229
CC(C)C[C@](C)(N)COc1ccc(-c2ccnc(NC(=O)c3ccco3)c2)cc1C(F)(F)F [Example 400, (S)—N-(4-(4-((2-amino-2,4-dimethylpentyl)oxy)-3-(trifluoromethyl)phenyl)pyridin-2-yl)furan-2-carboxamide]	0.3
CC(C)C[C@](C)(N)COc1ccc(-c2cnn3cccnc23)cc1Cl [Example 332]	94
CC(C)C[C@](C)(N)COc1ccc(-c2ccnc(NC(=O)c3ccc(Br)o3)c2)cc1C(F)(F)F [Example 401, (S)—N-(4-(4-((2-amino-2,4-dimethylpentyl)oxy)-3-(trifluoromethyl)phenyl)pyridin-2-yl)-5-bromofuran-2-carboxamide]	0.6
Cc1cc(-c2ccnc3c2C(=O)N(C)C3)ccc1OC[C@@](C)(N)CC(C)C [Example 430, (S)-4-(4-((2-amino-2,4-dimethylpentyl)oxy)-3-methylphenyl)-6-methyl-6,7-dihydro-5H-pyrrolo[3,4-b]pyridin-5-one]	67
